Series [1] in a line: Solubility in water / phosphate-buffered solution (pH 7.4).
For series [2] the following is noted: cited from earlier work.

As to `CCN(CC)C(=O)N[C@H]1C=C2c3cccc4[nH]cc(c34)C[C@H]2N(C)C1` [lisuride], in series [1] (free lisuride, calculated from solubility data of active ingredients/salts (Zimmermann 1983)), the “solubility (estimated)” value was roughly 2.2 mg/100 mL.
Take `CC(O)CO` (stereo not shown) [propylene glycol, 1,2-propanediol (propylene glycol)]: the “estimated amount acceptable as a daily oral dose” value in series [2] is on record as 25 mg/kg body weight.
With `CCCN1C[C@@H](NC(=O)N(CC)CC)C[C@@H]2c3cccc4[nH]cc(c34)C[C@H]21` [proterguride], in series [1] (free compound, phosphate-buffered solution (pH 7.4)), the solubility came to 2.6 mg/100 mL. Besides, the “solubility in water relative to lisuride” value in series [1] (water) was “comparable to that of lisuride”.

The values are drawn from US20090239894A1, “Stabilized aqueous solutions of ergoline compounds” (priority 2008, published 2009).
